Data on 27 compounds can be found in patent US7928107B2, “Quinazolines useful as modulators of ion channels” (Vertex Pharmaceuticals Incorporated, priority 2004, dated 2011).

NaV 1.8 channel, sequence (Q9Y5Y9 whole entry): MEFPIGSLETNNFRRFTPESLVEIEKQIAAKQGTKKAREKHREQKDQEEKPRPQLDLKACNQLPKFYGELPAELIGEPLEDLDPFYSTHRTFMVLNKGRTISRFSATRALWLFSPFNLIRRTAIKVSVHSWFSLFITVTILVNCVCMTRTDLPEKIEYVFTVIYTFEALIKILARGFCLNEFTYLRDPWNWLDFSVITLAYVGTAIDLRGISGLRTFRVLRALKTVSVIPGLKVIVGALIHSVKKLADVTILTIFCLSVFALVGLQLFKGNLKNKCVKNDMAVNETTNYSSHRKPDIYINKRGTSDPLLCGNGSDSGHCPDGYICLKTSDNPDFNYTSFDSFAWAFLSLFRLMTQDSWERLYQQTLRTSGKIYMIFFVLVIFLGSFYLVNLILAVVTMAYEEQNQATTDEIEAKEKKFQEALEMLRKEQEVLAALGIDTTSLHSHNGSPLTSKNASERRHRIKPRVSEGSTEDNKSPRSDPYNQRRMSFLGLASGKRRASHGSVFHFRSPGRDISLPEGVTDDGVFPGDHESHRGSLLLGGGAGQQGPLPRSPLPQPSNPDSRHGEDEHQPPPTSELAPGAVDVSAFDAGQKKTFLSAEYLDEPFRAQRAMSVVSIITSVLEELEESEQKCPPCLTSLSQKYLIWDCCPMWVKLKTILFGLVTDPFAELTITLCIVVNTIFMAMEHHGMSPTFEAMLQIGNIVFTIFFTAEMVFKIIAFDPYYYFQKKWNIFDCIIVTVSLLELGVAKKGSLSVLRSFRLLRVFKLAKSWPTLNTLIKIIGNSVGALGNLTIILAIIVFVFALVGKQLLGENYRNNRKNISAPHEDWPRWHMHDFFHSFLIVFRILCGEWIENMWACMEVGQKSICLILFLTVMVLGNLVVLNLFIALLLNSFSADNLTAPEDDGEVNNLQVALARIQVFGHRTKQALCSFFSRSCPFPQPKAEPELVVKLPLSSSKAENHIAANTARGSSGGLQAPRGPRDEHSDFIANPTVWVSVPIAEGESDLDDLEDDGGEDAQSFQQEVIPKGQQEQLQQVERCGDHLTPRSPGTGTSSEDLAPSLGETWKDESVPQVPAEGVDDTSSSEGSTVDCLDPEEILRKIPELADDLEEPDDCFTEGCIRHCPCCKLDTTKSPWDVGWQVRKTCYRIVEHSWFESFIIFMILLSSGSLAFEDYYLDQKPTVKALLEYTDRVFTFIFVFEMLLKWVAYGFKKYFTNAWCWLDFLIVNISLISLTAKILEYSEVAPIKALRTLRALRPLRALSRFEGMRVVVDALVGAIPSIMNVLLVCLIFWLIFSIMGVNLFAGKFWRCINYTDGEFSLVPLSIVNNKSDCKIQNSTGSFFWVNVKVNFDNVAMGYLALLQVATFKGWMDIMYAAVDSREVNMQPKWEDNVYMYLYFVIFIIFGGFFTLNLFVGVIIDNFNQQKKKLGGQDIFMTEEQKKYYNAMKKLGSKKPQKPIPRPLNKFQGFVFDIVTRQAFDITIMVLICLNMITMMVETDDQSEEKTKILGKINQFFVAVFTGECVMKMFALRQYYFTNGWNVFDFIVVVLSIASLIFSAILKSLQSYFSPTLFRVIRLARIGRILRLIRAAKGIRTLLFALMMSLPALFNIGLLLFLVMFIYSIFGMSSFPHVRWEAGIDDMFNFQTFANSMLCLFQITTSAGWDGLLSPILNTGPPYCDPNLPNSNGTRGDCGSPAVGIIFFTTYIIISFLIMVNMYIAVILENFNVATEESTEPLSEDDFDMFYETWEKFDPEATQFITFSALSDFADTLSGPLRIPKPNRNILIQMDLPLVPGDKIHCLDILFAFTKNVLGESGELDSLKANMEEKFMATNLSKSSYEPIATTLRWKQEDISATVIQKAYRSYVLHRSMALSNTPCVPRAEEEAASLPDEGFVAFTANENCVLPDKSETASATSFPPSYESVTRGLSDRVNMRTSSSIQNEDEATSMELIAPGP

The experiment concerns the target NaV 1.8 channel (Homo sapiens, UniProt Q9Y5Y9). Put plainly: Activity against NaV 1.8 channel (optical membrane potential assay). It is filed as cell-based. As for the experimental part: Compounds of the invention are useful as antagonists of voltage-gated sodium ion channels. Antagonist properties of test compounds were assessed as follows. Cells expressing the NaV of interest were placed into microtiter plates. After an incubation period, the cells were stained with fluorescent dyes sensitive to the transmembrane potential. The test compounds were added to the microtiter plate. The cells were stimulated with either a chemical or electrical means to evoke a NaV dependent membrane potential change from unblocked channels, which was detected and measured with trans-membrane potential-sensitive dyes. Antagonists were detected as a decreased membrane potential response to the stimulus. The optical membrane potential assay utilized voltage-sensitive FRET sensors described by Gonzalez and Tsien (See, Gonzalez, J. E. and R. Y. Tsien (1995) “Voltage sensing by fluorescence resonance energy transfer in single cells” Biophys J 69(4): 1272-80, and Gonzalez, J. E. and R. Y. Tsien (1997) “Improved indicators of cell membrane potential that use fluorescence resonance energy transfer” Chem Biol 4(4): 269-77) in combination with instrumentation for measuring fluorescence changes such as the Voltage/Ion Probe Reader (VIPR®) (See, Gonzalez, J. E., K. Oades, et al. (1999) “Cell-based assays and instrumentation for screening ion-channel targets” Drug Discov Today 4(9): 431-439).
24 hours before the assay on VIPR, CHO cells endogenously expressing a NaV1.2 type voltage-gated NaV are seeded in 96-well poly-lysine coated plates at 60,000 cells per well. Other subtypes are performed in an analogous mode in a cell line expressing the NaV of interest. • 1) On the day of the assay, medium is aspirated and cells are washed twice with 225 μL of Bath Solution #2 (BS#2). • 2) A 15 uM CC2-DMPE solution is prepared by mixing 5 mM coumarin stock solution with 10% Pluronic 127 1:1 and then dissolving the mix in the appropriate volume of BS#2. • 3) After bath solution is removed from the 96-well plates, the cells are loaded with 80 μL of the CC2-DMPE solution. Plates are incubated in the dark for 30 minutes at room temperature. • 4) While the cells are being stained with coumarin, a […] solution in BS#2 is prepared. In addition to DiSBAC2(3), this solution should contain 0.75 mM ABSCl and […] (prepared from 10 mM EtOH stock, Sigma #V-5754). • 5) After 30 minutes, CC2-DMPE is removed and the cells are washed twice with 225 μL of BS#2. As before, the residual volume should be 40 μL. • 6) Upon removing the bath, the cells are loaded with 80 μL of the DiSBAC2(3) solution, after which test compound, dissolved in DMSO, is added to achieve the desired test concentration to each well from the drug addition plate and mixed thoroughly. The volume in the well should be roughly 121 μL. The cells are then incubated for 20-30 minutes. • 7) Once the incubation is complete, the cells are ready to be assayed on VIPR® with a sodium add back protocol. 120 μL of Bath solution #1 is added to stimulate the NaV dependent depolarization. […] was used as an antagonist positive control for block of the NaV channel.
Data are analyzed and reported as normalized ratios of background-subtracted emission intensities measured in the 460 nm and 580 nm channels. Background intensities are then subtracted from each assay channel. Background intensities are obtained by measuring the emission intensities during the same time periods from identically treated assay wells in which there are no cells. The response as a function of time is then reported as the ratios obtained using the following formula: […]
The data is further reduced by calculating the initial (Ri) and final (Rf) ratios. These are the average ratio values during part or all of the pre-stimulation period, and during sample points during the stimulation period. The response to the stimulus R=Rf/Ri is then calculated. […]
With `Cc1ccc2c(N3CCC(NC(=O)[C@H]4CCCO4)C3)nc(-c3ccccc3O)nc2c1` (stereo in doubt) [Example 303, (2R)-Tetrahydro-N—((S)-1-(2-(2-hydroxyphenyl)-7-methylquinazolin-4-yl)pyrrolidin-3-yl)furan-2-carboxamide], the IC50 was 2 to 10 µM. For `Cc1ccc2c(N3CCN(C(=O)[C@H](O)CC(C)(C)C)CC3)nc(-c3ccccc3O)nc2c1` [Example 101, (R)-2-Hydroxy-1-(4-(2-(2-hydroxyphenyl)-7-methylquinazolin-4-yl)piperazin-1-yl)-4,4-dimethylpentan-1-one], the IC50 was < 2 µM. For `CC(C)C[C@@H](O)C(=O)N1CCN(c2nc(-c3ccccc3O)nc3ccccc23)CC1` [Example 102, (R)-2-Hydroxy-1-(4-(2-(2-hydroxyphenyl)quinazolin-4-yl)piperazin-1-yl)-4-methylpentan-1-one], the IC50 lay within 2 to 10 µM.

Regarding `Cc1ccc2c(N3CCN(C(=O)OCc4cccc5c4OCO5)CC3)nc(-c3ccccc3O)nc2c1` [Example 103, (Benzo[d][1,3]dioxol-7-yl)methyl 4-(2-(2-hydroxyphenyl)-7-methylquinazolin-4-yl)piperazine-1-carboxylate], the IC50 was > 10 µM. Next, `Cc1ccc2c(N3CCN(C(=O)[C@H](O)CC(=O)N(C)C)CC3)nc(-c3ccccc3O)nc2c1` [Example 104, (R)-3-Hydroxy-4-(4-(2-(2-hydroxyphenyl)-7-methylquinazolin-4-yl)piperazin-1-yl)-N,N-dimethyl-4-oxobutanamide]: > 10 µM; `Cc1ccc2c(N3CCN(C(=O)CC4CCOCC4)CC3)nc(-c3ccccc3O)nc2c1` [Example 105]: 2 to 10 µM; `Cc1ccc2c(N3CCN(C(=O)[C@H](O)CC(C)C)[C@@H](CO)C3)nc(-c3ccccc3O)nc2c1` [Example 106, (R)-2-Hydroxy-1-((R)-2-(hydroxymethyl)-4-(2-(2-hydroxyphenyl)-7-methylquinazolin-4-yl)piperazin-1-yl)-4-methylpentan-1-one]: > 10 µM. Under `O=C(OCc1cccnc1)N1CCN(c2nc(-c3ccccc3O)nc3ccccc23)CC1` [Example 107, (Pyridin-3-yl)methyl 4-(2-(2-hydroxyphenyl)quinazolin-4-yl)piperazine-1-carboxylate] stands 2 to 10 µM; under `Cc1ccc2c(N3CCN(C(=O)C(C)(C)O)CC3)nc(-c3ccccc3O)nc2c1` [Example 108, 2-Hydroxy-1-(4-(2-(2-hydroxyphenyl)-7-methylquinazolin-4-yl)piperazin-1-yl)-2-methylpropan-1-one], 2 to 10 µM. Regarding `C[C@H](O)CC(=O)N1CCN(c2nc(-c3ccccc3O)nc3ccccc23)CC1` [Example 109, (S)-3-Hydroxy-1-(4-(2-(2-hydroxyphenyl)quinazolin-4-yl)piperazin-1-yl)butan-1-one], the IC50 lay in the range of 2 to 10 µM. Regarding `Cc1ccc2c(N3CCN(C(=O)C(C)(O)C(F)(F)F)CC3)nc(-c3ccccc3O)nc2c1` (stereo not drawn) [Example 110, 2-(Trifluoromethyl)-2-hydroxy-1-(4-(2-(2-hydroxyphenyl)-7-methylquinazolin-4-yl)piperazin-1-yl)propan-1-one], the IC50 was > 10 µM.

On to `CC(C)(C)C[C@@H](O)C(=O)N1CCN(c2nc(-c3ccccc3O)nc3ccc(F)cc23)CC1` [Example 111, (R)-1-(4-(6-Fluoro-2-(2-hydroxyphenyl)quinazolin-4-yl)piperazin-1-yl)-2-hydroxy-4,4-dimethylpentan-1-one], for which the IC50 was > 10 µM. Regarding `Cc1ccc2c(N3CCN(C(=O)C(O)CC(F)(F)F)CC3)nc(-c3ccccc3O)nc2c1` (stereo not drawn) [Example 112, 4,4,4-Trifluoro-2-hydroxy-1-(4-(2-(2-hydroxyphenyl)-7-methylquinazolin-4-yl)piperazin-1-yl)butan-1-one], the concentration for half-maximal inhibition (IC50) is > 10 µM. `Cc1ccc2c(N3CCN(C(=O)C(O)C(C)C)CC3)nc(-c3ccccc3O)nc2c1` (stereo not drawn) [Example 113, 2-Hydroxy-1-(4-(2-(2-hydroxyphenyl)-7-methylquinazolin-4-yl)piperazin-1-yl)-3-methylbutan-1-one]: the IC50 lay in the range of 2 to 10 µM. As to `Cc1ccc2c(N3CCN(C(=O)OCc4ccncc4)CC3)nc(-c3c(O)cccc3F)nc2c1` [Example 114, (Pyridin-4-yl)methyl 4-(2-(2-fluoro-6-hydroxyphenyl)-7-methylquinazolin-4-yl)piperazine-1-carboxylate], the half-inhibitory concentration (IC50) is 2 to 10 µM. In the case of `CCC(O)(CC)C(=O)N1CCN(c2nc(-c3ccccc3O)nc3ccccc23)CC1` [Example 115, 2-Ethyl-2-hydroxy-1-(4-(2-(2-hydroxyphenyl)quinazolin-4-yl)piperazin-1-yl)butan-1-one], the IC50 was > 10 µM. Under `O=C(OCc1ccncc1)N1CCN(c2nc(-c3ccccc3O)nc3ccccc23)CC1` [Example 116, (Pyridin-4-yl)methyl 4-(2-(2-hydroxyphenyl)quinazolin-4-yl)piperazine-1-carboxylate] stands 2 to 10 µM; under `O=C(O[C@H]1CCOC1)N1CCN(c2nc(-c3ccccc3O)nc3ccc(F)cc23)CC1` [Example 117, (S)-Tetrahydrofuran-3-yl 4-(6-fluoro-2-(2-hydroxyphenyl)quinazolin-4-yl)piperazine-1-carboxylate], 2 to 10 µM; under `CC[C@@H](O)C(=O)N1CCN(c2nc(-c3ccccc3O)nc3ccccc23)CC1` [Example 118, (R)-2-Hydroxy-1-(4-(2-(2-hydroxyphenyl)quinazolin-4-yl)piperazin-1-yl)butan-1-one], 2 to 10 µM.

As for `Cc1ccc2c(N3CCN(C(=O)O[C@H]4CCOC4)CC3CO)nc(-c3ccccc3O)nc2c1` (stereo partly drawn) [Example 119, (S)-3-Hydroxymethyl-4-[2-(2-hydroxyphenyl)-7-methyl-quinazolin-4-yl]-piperazine-1-carboxylic acid tetrahydro-furan-3-yl ester], the IC50 is > 10 µM.

For `CCCCC(O)C(=O)N1CCN(c2nc(-c3ccccc3O)nc3cc(C)ccc23)CC1` (stereo not drawn) [Example 120], the IC50 fell in the range of 2 to 10 µM. In the case of `CCC(O)(CC)C(=O)N1CCN(c2nc(-c3ccccc3O)nc3cc(C)ccc23)CC1` [Example 122, 2-Ethyl-2-hydroxy-1-(4-(2-(2-hydroxyphenyl)-7-methylquinazolin-4-yl)piperazin-1-yl)butan-1-one], the IC50 fell in the range of 2 to 10 µM. On to `CC(C)C[C@@H](O)C(=O)N1CCN(c2nc(-c3ccccc3O)nc3cc(C(=O)O)ccc23)CC1` [Example 123, 4-[4-((R)-2-Hydroxy-4-methyl-pentanoyl)-piperazin-1-yl]-2-(2-hydroxy-phenyl)-quinazoline-7-carboxylic acid], for which the half-inhibitory concentration (IC50) was > 10 µM. Next, `CC[C@H](O)C(=O)N1CCN(c2nc(-c3ccccc3O)nc3cc(C)ccc23)CC1` [Example 124, (S)-2-Hydroxy-1-(4-(2-(2-hydroxyphenyl)-7-methylquinazolin-4-yl)piperazin-1-yl)butan-1-one]: > 10 µM; `Cc1ccc2c(N3CCN(C(=O)[C@H](O)CC(C)(C)F)CC3)nc(-c3ccccc3O)nc2c1` [Example 125, (R)-4-Fluoro-2-hydroxy-1-{4-[2-(2-hydroxy-phenyl)-7-methyl-quinazolin-4-yl]-piperazin-1-yl}-4-methyl-pentan-1-one]: > 10 µM; `Cc1ccc2c(N3CCN(C(=O)Oc4ccccc4)CC3CO)nc(-c3ccccc3O)nc2c1` (stereo not drawn) [Example 126, 3-Hydroxymethyl-4-[2-(2-hydroxy-phenyl)-7-methyl-quinazolin-4-yl]-piperazine-1-carboxylic acid phenyl ester]: > 10 µM. Under `Cc1ccc2c(N3CCN(C(=O)CCC4CCCC4)CC3)nc(-c3ccccc3O)nc2c1` [Example 127, 3-Cyclopentyl-1-(4-(2-(2-hydroxyphenyl)-7-methylquinazolin-4-yl)piperazin-1-yl)propan-1-one] stands < 2 µM.

What is called IC50 is the concentration needed to halve the response being measured.
